Among the data in US7365071B2, “Heterocyclic compounds, preparation process and intermediates, and use as medicaments, in particular as β-lactamase inhibitors and antibacterials” (priority 2002, dated 2008) are IC50 values, retold here.

One experiment addresses T1, β-lactamase Tem-1 (Escherichia coli, UniProt P62593).
T1 construct: The β-lactamases are isolated from bacterial strains resistant to penicillins and to cephalosporins; endogenous in cells; host or cells: E. coli 250HT21, soluble fraction of French-press lysate
Kind of experiment: Inhibitory activity for β-lactamases (nitrocefin hydrolysis). In kind it is biochemical, E. coli 250HT21. How it is done:
(§1) II/Inhibitory Activity for β-Lactamases
(§2) A. Preparation of the β-Lactamases Tem-1 and P99
(§3) The β-lactamases are isolated from bacterial strains resistant to penicillins and to cephalosporins (Tem1 and P99 are produced respectively by E. coli 250HT21 and E. Cloacae 293HT6).
(§4) The bacteria are cultured in 37 g/l brain-heart broth (DIFCO) at 37° C. They are harvested in the exponential phase, cooled and centrifuged. The bacterial pellets are taken up in 50 mM sodium phosphate buffer, pH 7.0, and are again centrifuged. The bacteria are taken up in two volumes of the same buffer and lyzed using a French press maintained at 4° C. After centrifuging for 1 h at 100 000 g at 4° C., the supernatants comprising the soluble fraction of the bacterial extracts are recovered and frozen at −80° C.
(§5) B. Determination of the β-Lactamase Activity
(§6) The method uses nitrocefin (Oxoid), a chromogenic cephalosporin, the product of hydrolysis by β-lactamases of which is red and absorbed at 485 nm, as substrate. The β-lactamase activity is determined kinetically by the measurement, on a plate spectrophotometer (Spectra Max Plus from Molecular Devices), of the variation in absorbance at 485 nm resulting from the hydrolysis of the substrate. The experiments are carried out at 37° C. The amount of enzyme was standardized and the measurements are carried out at the initial rate.
(§7) C. Determination of the Inhibitory Activity for β-Lactamases
(§8) Two measurements are carried out, without preincubation and with preincubation of the enzyme and of the inhibitor (5 min), in order to test the irreversibility of the reaction. The products are tested at 6 or 8 concentrations in duplicate. The reaction mixture comprises 100 μM nitrocefin and 50 mM sodium phosphate buffer, pH 7.0.
(§9) D. Calculations of the IC50 Values
(§10) The rates of hydrolysis are measured with and without inhibitor. The concentration of inhibitor which inhibits by 50% the reaction for the hydrolysis of nitrocefin by the enzyme is determined (IC50). The processing of the data is carried out using GraFit software (Erathycus Software).

A further experiment concerns the target T2, β-lactamase P99 (Enterobacter cloacae, UniProt P05364).
T2 construct: The β-lactamases are isolated from bacterial strains resistant to penicillins and to cephalosporins; endogenous in cells; host or cells: Enterobacter cloacae 293HT6, soluble fraction of French-press lysate
The description is as above. In kind it is biochemical. As to the method:
as §1, §2, §3, §4, §5, §6, §7, §8, §9, §10

Setting [1] is: after 5 min of preincubation with the enzyme, 100 μM nitrocefin, 50 mM sodium phosphate buffer pH 7.0, 37° C., read-out: IC50 nM/TEM1.
[2] abbreviates: after 5 min of preincubation with the enzyme, 100 μM nitrocefin, 50 mM sodium phosphate buffer pH 7.0, 37° C., read-out: IC50 nM/P99.

Structures can show the parent of a compound that is named as a salt. Where two headings read alike, the source gives them in different places.

T1 sequence (P62593 24-286 limits assumed): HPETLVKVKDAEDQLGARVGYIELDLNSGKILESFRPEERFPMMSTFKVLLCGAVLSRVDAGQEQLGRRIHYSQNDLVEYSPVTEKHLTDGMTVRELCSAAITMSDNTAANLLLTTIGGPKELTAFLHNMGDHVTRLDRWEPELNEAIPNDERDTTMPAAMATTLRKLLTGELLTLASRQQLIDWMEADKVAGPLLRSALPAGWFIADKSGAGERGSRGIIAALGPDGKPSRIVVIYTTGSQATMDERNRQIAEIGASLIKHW
T2 sequence (P05364 21-381): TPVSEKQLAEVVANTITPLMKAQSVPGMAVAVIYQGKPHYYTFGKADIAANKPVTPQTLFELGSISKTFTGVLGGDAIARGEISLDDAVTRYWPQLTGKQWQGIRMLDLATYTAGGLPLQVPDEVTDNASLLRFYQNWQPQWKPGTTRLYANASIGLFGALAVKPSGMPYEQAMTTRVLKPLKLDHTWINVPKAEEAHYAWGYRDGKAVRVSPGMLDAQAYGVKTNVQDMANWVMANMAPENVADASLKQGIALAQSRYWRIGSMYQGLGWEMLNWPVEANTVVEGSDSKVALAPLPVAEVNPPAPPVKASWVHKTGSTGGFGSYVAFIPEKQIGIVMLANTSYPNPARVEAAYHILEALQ

In the case of `O=C(O)CON1C(=O)N2CC1c1ccccc1N2C(=O)NC(=O)c1ccccc1` (stereo not shown) [Example 7, N-(1-Methylethyl)-2-propanaminium salt of [[1-[(benzoylamino)carbonyl]-1,5-dihydro-3-oxo-2,5-methano-2H-1,2,4-benzotriazepin-4(3H)-yl]oxy]acetic acid], the IC50 on β-lactamase Tem-1 came to 110000 nM; at β-lactamase P99, 63000 nM.
Take `C=CCON1C(=O)N2CC1c1ccccc1N2Cc1cccnc1` (stereo not shown) [Example 14, 4,5-Dihydro-4-(2-propenyloxy)-1-(3-pyridinylmethyl)-2,5-methano-2H-1,2,4-benzotriazepin-3(1H)-one]: the IC50 on β-lactamase Tem-1 (setting [1]) worked out at 26000 nM; at β-lactamase P99 (setting [2]) it was 17000 nM.
Consider `CN1c2ccccc2C2CN1C(=O)N2OS(=O)(=O)O` (stereo not shown) [Example 28, Sodium salt of 4,5-dihydro-1-methyl-4-(sulfooxy)-2,5-methano-2H-1,2,4-benzotriazepin-3(1H)-one], for which the IC50 at β-lactamase Tem-1 (setting [1]) was determined as 12000 nM; on β-lactamase P99 (setting [2]) it was 37000 nM.
With `O=C(O)CON1C(=O)N2CC1c1ccccc1N2C(=O)NS(=O)(=O)c1ccccc1` (stereo not shown) [Example 9, Bis[N-(1-methylethyl)-2-propanaminium] salt of [[1,5-dihydro-3-oxo-1-[[(phenylsulfonyl)amino]carbonyl]-2,5-methano-2H-1,2,4-benzotriazepin-4(3H)-yl]oxy]acetic acid], the IC50 was determined as 160000 nM on β-lactamase Tem-1 and 180000 nM on β-lactamase P99.
In the case of `CCOC(=O)CN1c2ccccc2C2CN1C(=O)N2OS(=O)(=O)O` (stereo not shown) [Example 27, Sodium Salt of Ethyl 4,5-dihydro-3-oxo-4-(sulfoxy)-2,5-methano-2-H-1,2,4-benzotriazepine-1(3H)-acetate], the IC50 at β-lactamase Tem-1 (setting [1]) was 7500 nM; on β-lactamase P99 (setting [2]), 530 nM.
`C=CCON1C(=O)N2CC1c1ccccc1N2C(=O)NS(=O)(=O)c1ccccc1` (stereo not shown) [Example 15, 4,5-Dihydro-3-oxo-N-(phenylsulfonyl)-4-(2-propenyloxy)-2,5-methano-2H-1,2,4-benzotriazepin-1(3H)-carboxamide]: the IC50 is 450000 nM at β-lactamase Tem-1 (setting [1]) and 110000 nM at β-lactamase P99 (setting [2]).
For `O=C(O)CON1C(=O)N2CC1c1ccccc1N2` (stereo not shown) [Example 11, N-(1-Methylethyl)-2-propanaminium salt of [(1,5-dihydro-3-oxo-2,5-methano-2H-1,2,4-benzotriazepin-4(3H)-yl)oxy]acetate acid], the IC50 on β-lactamase Tem-1 was determined as 14000 nM; against β-lactamase P99 it was 15000 nM.
Taken in the same sequence, the figures for `CS(=O)(=O)N1c2ccccc2C2CN1C(=O)N2OCC(=O)O` (stereo not shown) [Example 5, N-(1-Methylethyl)-2-propanaminium salt of [[1,5-dihydro-1-(methylsulfonyl)-3-oxo-2,5-methano-2H-1,2,4-benzotriazepin-4(3H)-yl]oxy]acetic acid] were 570000 nM and 460000 nM.
